In ChEMBL document CHEMBL1146677, “Orally active anti-proliferation agents: novel diphenylamine derivatives as FGF-R2 autophosphorylation inhibitors” (Bioorg Med Chem Lett, 2004):
pIC50: −log10 of the molar value. Converted amounts (≈) assume the structure as drawn. The source made the active and inactive calls.

Tests used:
[1] = target: T1, Fibroblast growth factor receptor 2 (Homo sapiens, UniProt P21802); assay: In vitro inhibition against autophosphorylation of Fibroblast growth factor receptor 2 in the human scirrhous gastric carcinoma cell line
Target sequence in this assay (P21802 whole entry): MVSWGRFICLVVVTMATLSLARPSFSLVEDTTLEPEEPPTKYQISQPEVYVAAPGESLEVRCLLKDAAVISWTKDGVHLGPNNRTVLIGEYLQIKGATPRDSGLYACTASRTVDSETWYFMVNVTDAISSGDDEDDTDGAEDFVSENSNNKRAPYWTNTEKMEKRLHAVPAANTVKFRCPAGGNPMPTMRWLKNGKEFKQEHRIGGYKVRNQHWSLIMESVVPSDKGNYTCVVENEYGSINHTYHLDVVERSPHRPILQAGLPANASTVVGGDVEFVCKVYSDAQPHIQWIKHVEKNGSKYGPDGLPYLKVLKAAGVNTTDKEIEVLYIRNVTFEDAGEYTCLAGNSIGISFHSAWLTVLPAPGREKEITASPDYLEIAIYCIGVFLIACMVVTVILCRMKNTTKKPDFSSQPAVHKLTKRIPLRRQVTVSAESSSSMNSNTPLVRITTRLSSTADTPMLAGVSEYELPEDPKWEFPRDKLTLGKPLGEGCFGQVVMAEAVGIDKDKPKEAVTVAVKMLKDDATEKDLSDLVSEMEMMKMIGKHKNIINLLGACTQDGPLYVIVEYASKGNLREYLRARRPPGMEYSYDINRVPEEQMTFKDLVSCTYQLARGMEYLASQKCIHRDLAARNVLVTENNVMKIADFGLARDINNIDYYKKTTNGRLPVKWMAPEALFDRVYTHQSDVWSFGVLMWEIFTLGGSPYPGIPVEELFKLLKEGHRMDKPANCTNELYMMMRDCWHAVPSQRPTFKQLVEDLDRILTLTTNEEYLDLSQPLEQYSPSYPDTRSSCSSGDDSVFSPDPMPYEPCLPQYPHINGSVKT

Rattus norvegicus [2] = species: Rattus norvegicus; assay: Percent remaining after incubation with rat liver microsomes for 10 min; assay type: functional
[3] = Solubility after at a pH 1.2; assay type: physicochemical; conditions: buffer, read-out: Activity
[4] = target: T1, Fibroblast growth factor receptor 2; assay: Ex vivo inhibition of fibroblast growth factor receptor (FGF-R2) autophosphorylation 5 hr after the oral administration at 100 mg/kg; assay type: functional, organism-based; parameters: dose 100 mg/kg
Target sequence in this assay (P21802 22-821 limits assumed): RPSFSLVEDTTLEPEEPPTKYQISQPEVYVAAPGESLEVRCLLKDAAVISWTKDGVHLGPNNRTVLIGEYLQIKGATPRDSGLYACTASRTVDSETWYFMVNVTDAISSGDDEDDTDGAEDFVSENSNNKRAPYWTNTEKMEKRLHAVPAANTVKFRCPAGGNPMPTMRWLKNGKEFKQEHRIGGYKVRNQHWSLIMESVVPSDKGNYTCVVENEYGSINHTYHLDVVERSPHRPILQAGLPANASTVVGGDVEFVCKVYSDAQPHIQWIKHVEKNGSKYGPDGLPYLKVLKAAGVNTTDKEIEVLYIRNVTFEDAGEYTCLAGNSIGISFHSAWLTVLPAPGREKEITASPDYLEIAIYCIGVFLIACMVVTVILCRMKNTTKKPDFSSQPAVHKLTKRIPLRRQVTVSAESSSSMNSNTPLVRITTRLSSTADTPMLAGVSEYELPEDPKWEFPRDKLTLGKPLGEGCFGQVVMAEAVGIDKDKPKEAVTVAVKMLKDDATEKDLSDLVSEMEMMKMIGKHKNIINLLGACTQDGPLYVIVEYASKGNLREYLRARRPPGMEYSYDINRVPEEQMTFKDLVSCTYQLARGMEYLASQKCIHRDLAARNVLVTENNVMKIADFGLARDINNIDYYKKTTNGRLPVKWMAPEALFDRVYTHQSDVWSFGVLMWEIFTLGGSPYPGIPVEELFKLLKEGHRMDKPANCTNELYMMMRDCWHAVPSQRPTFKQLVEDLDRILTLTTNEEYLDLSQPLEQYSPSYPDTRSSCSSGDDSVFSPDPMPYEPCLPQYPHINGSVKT

[5] = Solubility after at pH 1.2; assay type: physicochemical; conditions: buffer, read-out: Activity
[6] = Solubility after injection of water; assay type: physicochemical; conditions: read-out: Activity
[7] = target: T2, Epidermal growth factor receptor (Homo sapiens, UniProt P00533); assay: Inhibition of EGF-receptor autophosphorylation in intact cells at 10 uM (inactive); assay type: cell-based
T2 sequence (P00533 whole entry): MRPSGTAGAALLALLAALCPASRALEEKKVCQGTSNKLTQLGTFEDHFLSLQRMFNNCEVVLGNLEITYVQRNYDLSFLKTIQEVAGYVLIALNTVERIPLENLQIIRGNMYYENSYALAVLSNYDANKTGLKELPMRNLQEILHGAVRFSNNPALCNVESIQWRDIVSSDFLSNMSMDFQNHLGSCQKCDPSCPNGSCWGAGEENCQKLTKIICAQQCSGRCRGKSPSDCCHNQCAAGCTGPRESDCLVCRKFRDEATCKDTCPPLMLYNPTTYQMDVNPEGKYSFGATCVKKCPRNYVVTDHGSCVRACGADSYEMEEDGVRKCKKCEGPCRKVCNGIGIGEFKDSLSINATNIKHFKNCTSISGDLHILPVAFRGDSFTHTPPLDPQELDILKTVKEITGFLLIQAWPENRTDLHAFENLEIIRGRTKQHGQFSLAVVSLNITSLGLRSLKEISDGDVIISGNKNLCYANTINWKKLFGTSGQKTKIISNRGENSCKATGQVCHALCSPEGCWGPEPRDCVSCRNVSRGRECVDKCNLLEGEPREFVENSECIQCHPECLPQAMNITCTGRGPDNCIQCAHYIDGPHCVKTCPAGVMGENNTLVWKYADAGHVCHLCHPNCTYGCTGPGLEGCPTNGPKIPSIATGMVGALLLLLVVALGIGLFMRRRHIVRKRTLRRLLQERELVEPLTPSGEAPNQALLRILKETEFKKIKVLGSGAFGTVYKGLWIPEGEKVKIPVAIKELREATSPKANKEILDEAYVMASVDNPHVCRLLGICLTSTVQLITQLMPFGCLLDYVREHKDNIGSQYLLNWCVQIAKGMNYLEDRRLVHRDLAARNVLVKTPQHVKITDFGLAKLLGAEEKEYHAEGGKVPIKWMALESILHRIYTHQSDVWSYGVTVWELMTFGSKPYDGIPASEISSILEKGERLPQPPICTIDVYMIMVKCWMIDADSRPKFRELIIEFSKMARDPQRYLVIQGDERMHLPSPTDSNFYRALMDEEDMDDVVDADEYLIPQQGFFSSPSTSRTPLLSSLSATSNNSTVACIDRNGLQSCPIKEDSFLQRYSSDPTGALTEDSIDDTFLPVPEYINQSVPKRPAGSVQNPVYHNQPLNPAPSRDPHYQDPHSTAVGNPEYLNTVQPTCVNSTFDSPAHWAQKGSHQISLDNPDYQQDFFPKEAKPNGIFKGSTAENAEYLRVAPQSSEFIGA

[8] = target: T2, Epidermal growth factor receptor; assay: Inhibition of EGF-receptor autophosphorylation in intact cells; assay type: cell-based
Homo sapiens [9] = species: Homo sapiens; assay: Percent remaining after incubation with human liver microsomes for 10 min; assay type: functional
Homo sapiens [10] = species: Homo sapiens; assay: Percent remaining after incubation with human liver microsomes for 40 min; assay type: functional
[11] = target: T3, Insulin-like growth factor 1 receptor (Homo sapiens, UniProt P08069); assay: Inhibition of IGF-receptor 1 autophosphorylation in intact cells at 10 uM (inactive); assay type: cell-based
T3 sequence (P08069 31-736 limits assumed): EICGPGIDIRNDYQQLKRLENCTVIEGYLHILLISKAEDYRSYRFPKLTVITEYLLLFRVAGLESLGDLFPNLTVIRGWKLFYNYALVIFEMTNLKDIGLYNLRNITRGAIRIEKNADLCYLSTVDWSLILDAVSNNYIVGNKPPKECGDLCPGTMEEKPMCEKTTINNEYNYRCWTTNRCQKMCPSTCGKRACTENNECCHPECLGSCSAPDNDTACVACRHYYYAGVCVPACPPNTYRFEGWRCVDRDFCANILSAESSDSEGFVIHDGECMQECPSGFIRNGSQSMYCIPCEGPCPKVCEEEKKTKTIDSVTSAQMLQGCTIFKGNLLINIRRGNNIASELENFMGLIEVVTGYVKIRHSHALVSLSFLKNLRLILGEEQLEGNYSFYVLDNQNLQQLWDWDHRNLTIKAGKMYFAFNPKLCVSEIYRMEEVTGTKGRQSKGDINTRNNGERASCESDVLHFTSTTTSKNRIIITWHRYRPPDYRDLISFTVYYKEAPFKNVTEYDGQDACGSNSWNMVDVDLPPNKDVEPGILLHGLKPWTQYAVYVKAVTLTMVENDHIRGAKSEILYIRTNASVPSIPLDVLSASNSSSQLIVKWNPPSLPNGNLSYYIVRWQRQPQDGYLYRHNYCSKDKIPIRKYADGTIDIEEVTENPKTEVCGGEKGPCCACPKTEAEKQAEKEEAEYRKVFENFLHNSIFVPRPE
T3 sequence (P08069 741-1367 limits assumed): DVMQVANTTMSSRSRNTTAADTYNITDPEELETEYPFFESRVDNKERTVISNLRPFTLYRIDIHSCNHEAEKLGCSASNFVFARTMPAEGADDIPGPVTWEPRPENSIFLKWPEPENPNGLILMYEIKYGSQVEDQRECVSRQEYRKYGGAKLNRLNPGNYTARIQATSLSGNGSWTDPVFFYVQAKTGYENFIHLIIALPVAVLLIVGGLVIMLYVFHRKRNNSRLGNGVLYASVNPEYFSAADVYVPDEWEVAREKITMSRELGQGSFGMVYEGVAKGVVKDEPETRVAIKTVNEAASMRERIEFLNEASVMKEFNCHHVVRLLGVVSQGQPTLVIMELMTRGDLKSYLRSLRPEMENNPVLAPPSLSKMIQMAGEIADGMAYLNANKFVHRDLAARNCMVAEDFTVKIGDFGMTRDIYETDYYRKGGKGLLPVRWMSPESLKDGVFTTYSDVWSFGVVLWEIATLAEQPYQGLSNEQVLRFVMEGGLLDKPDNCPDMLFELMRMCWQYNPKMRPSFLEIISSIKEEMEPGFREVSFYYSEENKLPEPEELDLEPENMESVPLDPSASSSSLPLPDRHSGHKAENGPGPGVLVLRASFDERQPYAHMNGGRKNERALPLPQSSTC

[12] = target: T3, Insulin-like growth factor 1 receptor; assay: Inhibition of IGF-receptor 1 autophosphorylation in intact cells; assay type: cell-based
[13] = target: Platelet-derived growth factor receptor (Homo sapiens, UniProt P09619+P16234); assay: Inhibition of PDGF-receptor autophosphorylation in intact cells; assay type: cell-based
Rattus norvegicus [14] = species: Rattus norvegicus; assay: Percent remaining after incubation with rat liver microsomes for 40 min; assay type: functional
[15] = target: Mast/stem cell growth factor receptor Kit (Homo sapiens, UniProt P10721); assay: Inhibition of c-Kit autophosphorylation in intact cells; assay type: cell-based
[16] = target: T4, Hepatocyte growth factor receptor (Homo sapiens, UniProt P08581); assay: Inhibition of c-Met autophosphorylation in intact cells at 10 uM (inactive); assay type: cell-based
[17] = target: T4, Hepatocyte growth factor receptor; assay: Inhibition of c-Met autophosphorylation of in intact cells; assay type: cell-based
[18] = target: Vascular endothelial growth factor receptor 2 (Homo sapiens, UniProt P35968); assay: Inhibition of vascular endothelial growth factor receptor 2 autophosphorylation in intact cells; assay type: cell-based

pIC50 [1] | SMILES | Metabolism (Rattus norvegicus [2]) [%] | also measured
7.15 | COc1cc2c(Oc3ccc(Nc4ccc(C(C)(C)C)cc4)cc3)ccnc2cc1OCC(O)CN1CCOCC1 (stereo unspecified) | 72 | –
7.40 | COc1cc2nccc(Oc3ccc(Nc4ccc(C(C)(C)C)cc4)cc3)c2cc1OC | – | solubility [3]: 3 µg/mL (≈ 7 µM); inhibition [4]: 70%
7.00 | COc1cc2nccc(Oc3ccc(Nc4ccc(C(C)(C)C)cc4)c(C)c3)c2cc1OC | – | –
6.70 | COc1cc2c(Oc3ccc(Nc4ccc(C(C)(C)C)cc4)cc3)ccnc2cc1OCC(O)CN1CCCCC1 (stereo unspecified) | 78 | –
6.89 | COc1cc2nccc(Oc3ccc(Nc4ccc(C(C)(C)C)cc4)c(C)c3C)c2cc1OC | – | –
6.46 | COc1cc2c(Oc3ccc(Nc4ccc(C(C)(C)C)cc4)cc3)ccnc2cc1OCCCN1CCCCC1 | 28 | –
6.72 | COc1cc2nccc(Oc3ccc(C(=O)c4ccc(C(C)(C)C)cc4)cc3)c2cc1OC | – | inhibition [4]: 3%
6.36 | COc1cc2nccc(Oc3ccc(Oc4ccc(C(C)(C)C)cc4)cc3)c2cc1OC | – | –
7.20 | COc1cc2nccc(Oc3ccc(Nc4ccc(C(C)(C)C)cc4)c(F)c3)c2cc1OC | – | –
7.15 | COc1cc2c(Oc3ccc(Nc4ccc(C(C)(C)C)cc4)cc3)ccnc2cc1OCCN(CCO)CCO | 46 | –
6.59 | COc1cc2c(Oc3ccc(Nc4ccc(C(C)(C)C)cc4)c(F)c3)ccnc2cc1OCCNCCO | 92 | –

More lines, now with the values behind:

SMILES | pIC50 [1] | Metabolism (Rattus norvegicus [2]) [%] | also measured
COc1cc2nccc(Oc3ccc(Nc4ccc(C(C)C)cc4)cc3)c2cc1OC | 6.70 | – | –
COc1cc2nccc(Oc3ccc(Nc4ccc(C(C)(C)C)cc4)cc3C)c2cc1OC | < 5.00 | – | –
COc1cc2nccc(Oc3ccc(Nc4ccc(C(C)(C)C)cc4)cc3F)c2cc1OC | 7.27 | – | –
COc1cc2nccc(Oc3ccc(Nc4ccc(C(C)(C)C)cc4)c(C(F)(F)F)c3)c2cc1OC | < 5.00 | – | –
COc1cc2nccc(Oc3ccc(Nc4cccc(-c5ccccc5)c4)cc3)c2cc1OC | < 5.00 | – | –
COc1cc2c(Oc3ccc(Nc4ccc(C(C)(C)C)cc4)cc3)ccnc2cc1OCCNCCO | 7.06 | 97 | solubility [5]: 802 µg/mL (≈ 1600 µM); solubility [6]: 108 µg/mL (≈ 215 µM); Activity [7]: inactive; pIC50 [8]: < 5.00; Metabolism (Homo sapiens [9]): 99%; Metabolism (Homo sapiens [10]): 89%; Activity [11]: inactive; pIC50 [12]: < 5.00; pIC50 [13]: 7.00; Metabolism (Rattus norvegicus [14]): 78%; pIC50 [15]: 6.32; Activity [16]: inactive; pIC50 [17]: < 5.00; pIC50 [18]: 7.08
COc1cc2nccc(Oc3ccc(Nc4ccccc4)cc3)c2cc1OC | 5.05 | – | –
COc1ccc(Nc2ccc(Oc3ccnc4cc(OC)c(OC)cc34)cc2)cc1 | 6.11 | – | –
COc1cc2nccc(Oc3ccc(Cc4ccc(C(C)(C)C)cc4)cc3)c2cc1OC | < 6.00 | – | inhibition [4]: 5%
COc1cc2nccc(Oc3ccc(NC4CCC(C(C)(C)C)CC4)cc3)c2cc1OC (stereo unspecified) | 5.47 | – | –
COc1cc2c(Oc3ccc(Nc4ccc(C(C)(C)C)cc4)cc3)ccnc2cc1OCCN1CCC(CO)CC1 | 7.64 | 51 | –
COc1cc2c(Oc3ccc(Nc4ccc(C(C)(C)C)cc4)cc3F)ccnc2cc1OCCNCCO | 7.15 | 60 | –
COc1cc2c(Oc3ccc(Nc4ccc(C(C)(C)C)cc4)cc3)ccnc2cc1OCCN1CCOCC1 | 6.70 | 9 | –
